Measured values: ChEMBL document CHEMBL4152261, “Positional scanning library applied to the human eosinophil cationic protein/RNase3 N-terminus reveals novel and potent anti-biofilm peptides” (Eur J Med Chem, 2018)

What was measured:
[1] = Selectivity index, ratio of HC50 for sheep RBC to ED50 for induction of biofilm eradication of Pseudomonas aeruginosa PAO1; type: toxicity; details: sheep red blood cells (erythrocytes)
Pseudomonas aeruginosa [2] = experiment: Induction of Pseudomonas aeruginosa PAO1 agglutination after 1 hr by binocular stereo microscopic method; type: functional
[3] = Hemolytic activity in sheep RBC after 4 hrs; type: ADME, cell-based, Ovis aries, Erythrocyte; details: sheep red blood cells (erythrocytes)
Pseudomonas aeruginosa [4] = experiment: Induction of biofilm eradication of Pseudomonas aeruginosa PAO1 after 4 hrs by BacTiter-Glo assay; type: functional; details: PAO1, 4 h, read-out: ED50 (the source's name)
Pseudomonas aeruginosa [5] = experiment: Bactericidal activity against Pseudomonas aeruginosa PAO1 planktonic cells after 4 hrs by BacTiter-Glo assay; type: functional; details: PAO1, 4 h, read-out: ED50 (the source's name)
Lipopolysaccharide (LPS) [6] = experiment: Displacement of BODIPY TR cadaverine from Pseudomonas aeruginosa LPS by fluorescence assay
[7] = Selectivity index, ratio of IC50 for human MRC5 cells to ED50 for induction of biofilm eradication of Pseudomonas aeruginosa PAO1; type: toxicity
HepG2 = experiment: Cytotoxicity against human HepG2 cells after 4 hrs by MTT assay; type: cell-based; details: HepG2, 4 h
MRC5 = experiment: Cytotoxicity against human MRC5 cells after 4 hrs by MTT assay; type: cell-based; details: MRC5, 4 h
Lipopolysaccharide (LPS) [8] = experiment: Displacement of BODIPY TR cadaverine from Pseudomonas aeruginosa LPS at 1 uM by fluorescence assay relative to control
Pseudomonas aeruginosa [9] = experiment: Bactericidal activity against Pseudomonas aeruginosa PAO1 planktonic cells at 1 uM after 4 hrs by BacTiter-Glo assay relative to control; type: functional
[10] = Hemolytic activity in sheep RBC at 10 uM after 4 hrs relative to control; type: ADME, cell-based, Ovis aries, Erythrocyte; details: sheep red blood cells (erythrocytes), read-out: Activity

CC[C@H](C)[C@H](NC(=O)[C@H](C)NC(=O)[C@H](CCCNC(=N)N)NC(=O)[C@H](CCSC)NC(=O)[C@H](C)NC(=O)[C@@H](NC(=O)[C@@H](NC(=O)[C@H](CCCNC(=N)N)NC(=O)[C@@H]1CCCN1C(=O)[C@H](CO)NC(=O)[C@@H](NC(=O)[C@H](Cc1cnc[nH]1)NC(=O)[C@@H](NC(=O)[C@@H](NC(=O)[C@H](C)NC(=O)[C@H](Cc1ccccc1)NC(=O)[C@H](Cc1c[nH]c2ccccc12)NC(=O)[C@H](CCC(N)=O)NC(=O)[C@H](C)NC(=O)[C@H](CCCNC(=N)N)NC(=O)[C@@H](NC(=O)[C@H](Cc1ccccc1)NC(=O)[C@@H]1CCCN1C(=O)[C@@H](N)CCCNC(=N)N)[C@H](C)O)[C@@H](C)CC)[C@@H](C)CC)[C@@H](C)CC)[C@@H](C)O)[C@@H](C)CC)C(=O)N[C@@H](CC(N)=O)C(=O)N[C@@H](CC(N)=O)C(=O)N[C@@H](Cc1ccc(O)cc1)C(=O)N[C@@H](CCCNC(=N)N)C(=O)N[C@@H](Cc1c[nH]c2ccccc12)C(=O)N[C@@H](CCCNC(=N)N)C(=O)O
selectivity ratio [1]: 16 to 60
MAC (Pseudomonas aeruginosa [2]): 0.25 µM
HC50 at 4 h [3]: > 100 µM
EC50 (Pseudomonas aeruginosa [4]): 3.19 µM
EC50 (Pseudomonas aeruginosa [5]): 0.44 µM
ED50 (Lipopolysaccharide (LPS) [6]): 1.66 µM
selectivity ratio [7]: 16 to 60
IC50 (HepG2): 59.6 µM
IC50 (MRC5): > 100 µM

CC[C@H](C)[C@H](NC(=O)[C@H](C)NC(=O)[C@H](CCCNC(=N)N)NC(=O)[C@H](CCSC)NC(=O)[C@H](C)NC(=O)[C@@H](NC(=O)[C@@H](NC(=O)[C@H](CCCNC(=N)N)NC(=O)[C@@H]1CCCN1C(=O)[C@H](CO)NC(=O)[C@@H](NC(=O)[C@H](Cc1cnc[nH]1)NC(=O)[C@H](CCC(N)=O)NC(=O)[C@@H](NC(=O)[C@H](C)NC(=O)[C@H](Cc1ccccc1)NC(=O)[C@H](Cc1c[nH]c2ccccc12)NC(=O)[C@H](CCC(N)=O)NC(=O)[C@H](C)NC(=O)[C@H](CCCNC(=N)N)NC(=O)[C@@H](NC(=O)[C@H](Cc1ccccc1)NC(=O)[C@@H]1CCCN1C(=O)[C@@H](N)CCCNC(=N)N)[C@@H](C)O)[C@@H](C)CC)[C@@H](C)CC)[C@H](C)O)[C@@H](C)CC)C(=O)N[C@@H](CC(N)=O)C(=O)N[C@@H](CC(N)=O)C(=O)N[C@@H](Cc1ccc(O)cc1)C(=O)N[C@@H](CCCNC(=N)N)C(=O)N[C@@H](Cc1c[nH]c2ccccc12)C(=O)N[C@@H](CCCNC(=N)N)C(=O)O
selectivity ratio [1]: 16 to 60
MAC (Pseudomonas aeruginosa [2]): 1 µM
HC50 at 4 h [3]: > 150 µM
inhibition (Lipopolysaccharide (LPS) [8]): 40%
EC50 (Pseudomonas aeruginosa [4]): 6.62 µM
Activity (Pseudomonas aeruginosa [9]): 50%
hemolysis at 4 h, 10 µM [10]: 10%
EC50 (Pseudomonas aeruginosa [5]): 1.34 µM
ED50 (Lipopolysaccharide (LPS) [6]): 2.85 µM
selectivity ratio [7]: 16 to 60
IC50 (HepG2): 74.4 µM
IC50 (MRC5): > 150 µM

H-RPFTRAQIFAIQHISPRTIAMRAINNYRWR-OH
selectivity ratio [1]: 16 to 60
MAC (Pseudomonas aeruginosa [2]): 0.125 µM
HC50 at 4 h [3]: > 150 µM
EC50 (Pseudomonas aeruginosa [4]): 4.37 µM
EC50 (Pseudomonas aeruginosa [5]): 0.25 µM
ED50 (Lipopolysaccharide (LPS) [6]): 3.07 µM
selectivity ratio [7]: 16 to 60
IC50 (HepG2): 172 µM
IC50 (MRC5): > 150 µM

H-RPFIRAQWFAIQHISPRTIAMRAINNYRWR-OH
selectivity ratio [1]: 16 to 60
MAC (Pseudomonas aeruginosa [2]): 0.25 µM
HC50 at 4 h [3]: > 150 µM
EC50 (Pseudomonas aeruginosa [4]): 2.37 µM
EC50 (Pseudomonas aeruginosa [5]): 0.55 µM
ED50 (Lipopolysaccharide (LPS) [6]): 3.42 µM
selectivity ratio [7]: 16 to 60
IC50 (HepG2): 95.8 µM
IC50 (MRC5): > 150 µM
